# Data as given in patent US9278942B2, “Non-steroidal compounds as androgen receptor modulators” (FLX Discoveries Oy, priority 2011, dated 2016).
# Target: T1, human AR (Homo sapiens, UniProt P10275)
# T1 construct: expressed in transfected cells; host or cells: COS-1
# T1 sequence (P10275 1-920): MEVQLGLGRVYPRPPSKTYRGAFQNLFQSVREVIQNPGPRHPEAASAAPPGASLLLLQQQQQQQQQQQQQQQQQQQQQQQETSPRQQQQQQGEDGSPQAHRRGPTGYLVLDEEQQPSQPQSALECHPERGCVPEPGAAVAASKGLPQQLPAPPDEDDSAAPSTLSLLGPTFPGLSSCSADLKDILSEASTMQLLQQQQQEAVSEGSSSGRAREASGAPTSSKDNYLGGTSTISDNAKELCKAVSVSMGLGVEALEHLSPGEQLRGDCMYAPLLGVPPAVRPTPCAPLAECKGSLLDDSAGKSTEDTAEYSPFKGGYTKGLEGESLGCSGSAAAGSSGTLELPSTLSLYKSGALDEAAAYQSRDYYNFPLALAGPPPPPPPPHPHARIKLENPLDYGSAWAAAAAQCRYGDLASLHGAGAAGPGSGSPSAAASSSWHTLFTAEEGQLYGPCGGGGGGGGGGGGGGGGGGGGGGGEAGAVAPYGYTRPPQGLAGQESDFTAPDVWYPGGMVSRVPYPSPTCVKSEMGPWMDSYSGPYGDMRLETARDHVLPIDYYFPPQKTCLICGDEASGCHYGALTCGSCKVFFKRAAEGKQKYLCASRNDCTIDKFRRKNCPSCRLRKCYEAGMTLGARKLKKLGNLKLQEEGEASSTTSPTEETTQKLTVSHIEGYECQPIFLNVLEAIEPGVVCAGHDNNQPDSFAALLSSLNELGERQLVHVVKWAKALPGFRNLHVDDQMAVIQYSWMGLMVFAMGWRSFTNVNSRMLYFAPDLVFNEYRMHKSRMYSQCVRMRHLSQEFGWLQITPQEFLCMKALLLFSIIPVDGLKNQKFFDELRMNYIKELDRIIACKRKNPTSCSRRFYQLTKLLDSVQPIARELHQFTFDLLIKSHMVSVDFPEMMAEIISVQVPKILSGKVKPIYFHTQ
# Assay: Competitive AR binding assay against [3H]-R1881 in transiently transfected COS-1 cells
# Conditions: Table 1; compound 13.4 μM; [3H]-R1881 1.34 nM; complete inhibition equals 100%
# Protocol: Competitive AR Binding Assay.
# AR binding was measured by a competitive assay against [^3H]-R1881 (PerkinElmer) in transiently transfected COS-1 cells. One day before transfection, COS-1 cells were seeded into 2 ml of DMEM (Dulbecco's modified Eagle medium, Gipco) with 10% dextran-charcoal-treated fetal bovine serum and 0.25% (vol/vol) Penicillin-Streptomysin (Euroclone) at a density of 140×10^3 cells/well. After medium change to DMEM 2.5% FBS, the cells were transfected for 24 hours with 10 ng/well of human AR expression vector pSG5 hAR by using the TransIT method (Micrus Bio TransIT LT1, Transfection Reagent). After 36 hours, the cells where treated with tested compounds using 10000 fold molarities compared to labelled R1881 (1.34 nM). After 2 hours of incubation at 37° C., the medium was removed. The cells were removed from the wells to 150 μl of 1× phosphate buffered saline (PBS), transferred to Eppendorf tubes and centrifuged at 4° C. using 4000×g for 5 min, and then washed twice with 150 μl of PBS. The cell pellets were dissolved to 50 μl of 0.5M NaOH and incubated for 15 min at 56° C., after which the samples (three replicates for each sample compound) were transferred to liquid twinkle tubes with 3 ml of OptiPhase HiSafe 3 twinkle solution (PerkinElmer) and radioactivity of AR-bound [^3H]-R1881 determined. The results were measured with LKB WALLAC 1214 racbeta equipment. The ability of test compounds to bind AR is reported as reduction in bound radioactivity obtained with 1.34 nM [^3H]-R1881.
# The results (% inhibition) were calculated as: % inhibition=100−[100×(averagecompound/average[3H]-R1881)].
row,SMILES,Inhibition of [3H]-R1881 binding at 1.34 nM ± S.D. [%]
1,"COc1cccc(C2=NOC(Cc3ccccc3)(c3ccccc3)C2)c1 (single isomer, unassigned) [Example 13b, 5-Benzyl-5-phenyl-3-(3-methoxyphenyl)-4,5-dihydro-isoxazole]",1.6 ± 6.6
2,"CCCCN1C(c2cccc(Cl)c2)=NOC1(C)Cc1ccccc1 (centres unmarked) [Example 50b, 5-Benzyl-4-butyl-3-(3-chloro-phenyl)-5-methyl-4,5-dihydro-[1,2,4]oxadiazole]",55.7 ± 1.9
3,"Clc1ccccc1C1=NOC2CCCCC12 (single isomer, unassigned) [Example 30a, 3-(2-Chloro-phenyl)-3a,4,5,6,7,7a-hexahydro-benzo[d]-isoxazole]",30.2 ± 3.8
4,"COc1ccc(C2=NOC(Cc3ccccc3)(c3ccccc3)C2)cc1 (single isomer, unassigned) [Example 14b, 5-Benzyl-3-(4-methoxyphenyl)-5-phenyl-4,5-dihydro-isoxazole]",0
5,"CC(C)CN1C(c2ccc([N+](=O)[O-])cc2)=NOC1(C)Cc1ccccc1 (single isomer, unassigned) [Example 61a, 5-Benzyl-4-isobutyl-5-methyl-3-(4-nitro-phenyl)-4,5-dihydro-[1,2,4]oxadiazole]",14.9 ± 1.8
6,"Clc1ccccc1C1=NOC2CCCCC12 (single isomer, unassigned) [Example 30b, 3-(2-Chloro-phenyl)-3a,4,5,6,7,7a-hexahydro-benzo[d]-isoxazole]",66.3 ± 6.5
7,"COc1ccc(CC2=NOC(C)(Cc3ccccc3)N2CC(C)C)cc1 (single isomer, unassigned) [Example 65b, 5-Benzyl-4-isobutyl-3-(4-methoxy-benzyl)-5-methyl-4,5-dihydro-[1,2,4]oxadiazole]",13.5 ± 1.6
8,"COc1cccc(C2=NOC(Cc3ccccc3)(c3ccccc3)C2)c1 (single isomer, unassigned) [Example 13a, 5-Benzyl-5-phenyl-3-(3-methoxyphenyl)-4,5-dihydro-isoxazole]",31.1 ± 5.6
9,"CCCCN1C(Cc2ccccc2)=NOC1(C)Cc1ccccc1 (centres unmarked) [Example 55b, 3,5-Dibenzyl-4-butyl-5-methyl-4,5-dihydro-[1,2,4]oxadiazole]",32.7 ± 3.5
10,"COc1ccc(C2=NOC(Cc3ccccc3)(c3ccccc3)C2)cc1 (single isomer, unassigned) [Example 14a, 5-Benzyl-3-(4-methoxyphenyl)-5-phenyl-4,5-dihydro-isoxazole]",29.6 ± 3.4

# Same assay, conditions: Table 1; compound 13.4 μM; [3H]-R1881 1.34 nM; complete inhibition equals 100%; read-out: Inhibition of [3H]-R1881 binding at 1.34 nM ± S.D.
row,SMILES,inhibition at 13.4 µM [%]
1,"CC1(Cc2ccccc2)CC(c2cccc(Cl)c2)=NO1 (centres unmarked) [Example 6ab, 5-Benzyl-3-(3-chlorophenyl)-5-methyl-4,5-dihydroisoxazole]",31.4 ± 1.9
2,"COc1cccc(C2=NOC(C)(Cc3ccccc3)C2)c1 (centres unmarked) [Example 2ab, 5-Benzyl-3-(3-methoxyphenyl)-5-methyl-4,5-dihydro-isoxazole]",64.2 ± 2.2
3,"CCCCN1C(Cc2ccccc2)=NOC1(C)Cc1ccccc1 (centres unmarked) [Example 55a, 3,5-Dibenzyl-4-butyl-5-methyl-4,5-dihydro-[1,2,4]oxadiazole]",35.1 ± 5.8
4,"CCCCN1C(c2ccc3ccccc3c2)=NOC1(C)Cc1ccccc1 (centres unmarked) [Example 54ab, 5-Benzyl-4-butyl-5-methyl-3-napthalen-2-yl-4,5-dihydro-[1,2,4]oxadiazole]",28.2 ± 3
5,"CCCCN1C(CCCc2ccccc2)=NOC1(C)Cc1ccccc1 (centres unmarked) [Example 59ab, 5-Benzyl-4-butyl-5-methyl-3-(3-phenyl-propyl)-4,5-dihydro-[1,2,4]oxadiazole]",39.1 ± 2.6
6,"CC1(Cc2ccccc2)CC(c2ccc(Cl)cc2)=NO1 (centres unmarked) [Example 7ab, 5-Benzyl-3-(4-chlorophenyl)-5-methyl-4,5-dihydro-isoxazole]",51 ± 2.4
7,"CCCCN1C(CCc2ccccc2)=NOC1(C)Cc1ccccc1 (centres unmarked) [Example 57ab, 5-Benzyl-4-butyl-5-methyl-3-phenethyl-4,5-dihydro-[1,2,4]oxadiazole]",48.7 ± 3.3
